In article PMC4912218, “Targeted metabolomics of Gammarus pulex following controlled exposures to selected pharmaceuticals in water” (The Science of the Total Environment, 2016):

Test system: Gammarus pulex
Test: Targeted metabolite profiling (LC-HRMS) of G. pulex after exposure at NOAEL and LOAEL
Assay type: in vivo
Experimental: Approximately 100 specimens were introduced in a tank containing 1 L of AFW (control), 1 L of AFW spiked with C1 and 1 L of AFW with C2. At three different times (2, 6 and 24 h), 4 replicates of live G. pulex (a pool of 6–7 animals for each replicate) were collected, frozen on dry ice and then stored at − 80 °C before metabolite profiling was performed.
Quantification of pharmaceutical concentrations in G. pulex at the 24 h exposure interval was performed. Separate exposures were set up in triplicate in beakers containing 200 mL of exposure solution (AFW spiked with the respective C1 pharmaceutical dose) and 20 organisms. At 24 h, animals were immediately rinsed with ultra-pure water and then frozen at − 20 °C for 24 h. […] Prior to extraction, frozen G. pulex samples were lyophilised at − 50 °C under vacuum for 48 h and milled in an agate mortar to a fine powder. For each analysis, 20 mg of a lyophilised composite sample were transferred to 2 mL polypropylene tubes (Eppendorf®, Hamburg, Germany), for solid-liquid extraction (SLE). […] Then, samples were shaken for 25 min on a vibration plate (IKA® KS 260 basic) and centrifuged at 14,000 rpm for 25 min at 0 °C. Finally, the supernatant was transferred to a chromatographic vial by using a […] syringe filter (Whatman, GE Healthcare Life Sciences, Buckinghamshire, UK). All samples were stored at − 80 °C until LC-HRMS analysis.
Briefly, 50 mg of lyophilised G. pulex were extracted in 5 mL of acetonitrile and pre-concentrated on Oasis HLB SPE cartridges (6 mL, 200 mg sorbent). The extract was eluted, dried-down and reconstituted in starting LC mobile phase. […] Organic acids, nucleosides, nucleotides, sugars and AAs were measured using LC–HRMS. An Exactive™ mass spectrometer equipped with heated electrospray ionization (H-ESI) source was used (Thermo Fisher Scientific, Bremen, Germany). The system was equipped with a HTC PAL autosampler and a Surveyor MS Plus pump. A TSK Gel-Amide 80 column (2 × 250 mm, 5 μm) for analyte separation was purchased from Sigma Aldrich. Mobile phases were binary mixtures of acetonitrile (A) and 5 mM ammonium acetate (pH 5) in HPLC-grade water (B). […] The flow rate was set at 150 μL min^− 1 and the injection volume was 5 μL. […] Full scan acquisition over a mass range of 80–800 Da was performed at 70,000 full width at half maximum (FWHM) and spray voltage at 3.00 kV, capillary voltage at 30 V, skimmer voltage at 28 V and tube lens voltage at 130 V were used. A sheath gas flow rate of 45 arbitrary units (au), an auxiliary gas flow rate of 10 au and a capillary temperature at 300 °C were selected.
Here, pharmaceutical residue quantification in exposed G. pulex was performed by a 3-point matrix-matched calibration curve. […] The algal amino acid mixture-^13C,^15N (see Table 1) was used as internal standard (IS) for extraction and analytical control. L-ornithine hydrochloride, inosine, thymidine, taurine, 1.7-dimethylxanthine and (−)-riboflavin were quantified using either ^13C,^15N-proline or ^13C,^15N-tyrosine as the internal standard. The remaining 15 compounds were quantified using external calibration and the target compound itself was used as external standard. […] The method detection limit (MDL) was calculated following the same procedure, using spiked lyophilised G. pulex samples at a concentration of 1 μg g^− 1. Intra-assay variation was assessed using five consecutive injections of 5 ng μL^− 1 standard solution, and inter-assay variation was determined by measuring the same standard solution on four different days. […] Recovery studies were performed in triplicate, using lyophilised G. pulex samples spiked at 1 μg g^− 1 with the metabolites mixture and the algal amino acid mixture-^13C, ^15N.

Compound: Oc1cc(Cl)ccc1Oc1ccc(Cl)cc1Cl [Triclosan]
- (-)-Riboflavin concentration in G. pulex (6h, C2= 0.3 mg/L): 2.6 ± 0.3 µg/g
- ADP concentration in G. pulex (6h, C2= 0.3 mg/L): 28.2 ± 0.3 µg/g
- Cytidine concentration in G. pulex (6h, C2= 0.3 mg/L): 19 ± 7 µg/g
- Hypoxanthine concentration in G. pulex (6h, C2= 0.3 mg/L): 74 ± 18 µg/g
- Inosine concentration in G. pulex (6h, C2= 0.3 mg/L): 23098 ± 627 µg/g
- L-2-amino-n-butyric concentration in G. pulex (6h, C2= 0.3 mg/L): 19.8 ± 2 µg/g
- L-(-)-Proline concentration in G. pulex (6h, C2= 0.3 mg/L): 246 ± 4 µg/g
- L-Alanine concentration in G. pulex (6h, C2= 0.3 mg/L): 784 ± 31 µg/g
- L-Citrulline concentration in G. pulex (6h, C2= 0.3 mg/L): 12.3 ± 1 µg/g
- L-Isoleucine concentration in G. pulex (6h, C2= 0.3 mg/L): 1561 ± 147 µg/g
- L-Leucine concentration in G. pulex (6h, C2= 0.3 mg/L): 353 ± 4 µg/g
- L-Methionine concentration in G. pulex (6h, C2= 0.3 mg/L): 4.6 ± 0.8 µg/g
- L-Phenylalanine concentration in G. pulex (6h, C2= 0.3 mg/L): 233 ± 5 µg/g
- L-Serine concentration in G. pulex (6h, C2= 0.3 mg/L): 168 ± 2 µg/g
- L-Threonine concentration in G. pulex (6h, C2= 0.3 mg/L): 486 ± 8 µg/g
- L-Tryptophan concentration in G. pulex (6h, C2= 0.3 mg/L): 134 ± 10 µg/g
- L-Tyrosine concentration in G. pulex (6h, C2= 0.3 mg/L): 234 ± 2 µg/g
- L-Valine concentration in G. pulex (6h, C2= 0.3 mg/L): 299 ± 18 µg/g
- L-aspartic acid concentration in G. pulex (6h, C2= 0.3 mg/L): 36.1 ± 6 µg/g
- NADH concentration in G. pulex (6h, C2= 0.3 mg/L): 8.1 ± 0.8 µg/g
- Taurine concentration in G. pulex (6h, C2= 0.3 mg/L): 8484 ± 60 µg/g
- Thymidine concentration in G. pulex (6h, C2= 0.3 mg/L): 1163 ± 130 µg/g
- Trehalose concentration in G. pulex (6h, C2= 0.3 mg/L): 251 ± 4 µg/g
- Uridine concentration in G. pulex (6h, C2= 0.3 mg/L): 533 ± 28 µg/g
- (-)-Riboflavin concentration in G. pulex (24h, C1= 0.1 mg/L): 2.4 ± 2 µg/g
- ADP concentration in G. pulex (24h, C1= 0.1 mg/L): 18.7 ± 1 µg/g
- Cytidine concentration in G. pulex (24h, C1= 0.1 mg/L): 19 ± 3 µg/g
- Hypoxanthine concentration in G. pulex (24h, C1= 0.1 mg/L): 95 ± 27 µg/g
- Inosine concentration in G. pulex (24h, C1= 0.1 mg/L): 18957 ± 5084 µg/g
- L-2-amino-n-butyric concentration in G. pulex (24h, C1= 0.1 mg/L): 16.8 ± 5 µg/g
- L-(-)-Proline concentration in G. pulex (24h, C1= 0.1 mg/L): 293 ± 13 µg/g
- L-Alanine concentration in G. pulex (24h, C1= 0.1 mg/L): 810 ± 110 µg/g
- L-Citrulline concentration in G. pulex (24h, C1= 0.1 mg/L): 8.3 ± 0.5 µg/g
- L-Isoleucine concentration in G. pulex (24h, C1= 0.1 mg/L): 1743 ± 224 µg/g
- L-Leucine concentration in G. pulex (24h, C1= 0.1 mg/L): 376 ± 13 µg/g
- L-Methionine concentration in G. pulex (24h, C1= 0.1 mg/L): 7.0 ± 0.3 µg/g
- L-Phenylalanine concentration in G. pulex (24h, C1= 0.1 mg/L): 260 ± 6 µg/g
- L-Serine concentration in G. pulex (24h, C1= 0.1 mg/L): 120 ± 12 µg/g
- L-Threonine concentration in G. pulex (24h, C1= 0.1 mg/L): 600 ± 20 µg/g
- L-Tryptophan concentration in G. pulex (24h, C1= 0.1 mg/L): 72 ± 8 µg/g
- L-Tyrosine concentration in G. pulex (24h, C1= 0.1 mg/L): 307 ± 4 µg/g
- L-Valine concentration in G. pulex (24h, C1= 0.1 mg/L): 398 ± 17 µg/g
- L-aspartic acid concentration in G. pulex (24h, C1= 0.1 mg/L): 82.5 ± 26 µg/g
- NADH concentration in G. pulex (24h, C1= 0.1 mg/L): 7.7 ± 0.1 µg/g
- Taurine concentration in G. pulex (24h, C1= 0.1 mg/L): 12433 ± 2122 µg/g
- Thymidine concentration in G. pulex (24h, C1= 0.1 mg/L): 1718 ± 19 µg/g
- Trehalose concentration in G. pulex (24h, C1= 0.1 mg/L): 251 ± 22 µg/g
- Uridine concentration in G. pulex (24h, C1= 0.1 mg/L): 644 ± 77 µg/g
- (-)-Riboflavin concentration in G. pulex (24h, C2= 0.3 mg/L): 2.6 ± 0.8 µg/g
- ADP concentration in G. pulex (24h, C2= 0.3 mg/L): 29.3 ± 0.8 µg/g
- Cytidine concentration in G. pulex (24h, C2= 0.3 mg/L): 16 ± 3 µg/g
- Hypoxanthine concentration in G. pulex (24h, C2= 0.3 mg/L): 53 ± 10 µg/g
- Inosine concentration in G. pulex (24h, C2= 0.3 mg/L): 36017 ± 80 µg/g
- L-2-amino-n-butyric concentration in G. pulex (24h, C2= 0.3 mg/L): 21.5 ± 2 µg/g
- L-(-)-Proline concentration in G. pulex (24h, C2= 0.3 mg/L): 207 ± 3 µg/g
- L-Alanine concentration in G. pulex (24h, C2= 0.3 mg/L): 673 ± 17 µg/g
- L-Citrulline concentration in G. pulex (24h, C2= 0.3 mg/L): 13.8 ± 2 µg/g
- L-Isoleucine concentration in G. pulex (24h, C2= 0.3 mg/L): 1164 ± 39 µg/g
- L-Leucine concentration in G. pulex (24h, C2= 0.3 mg/L): 299 ± 0.7 µg/g
- L-Methionine concentration in G. pulex (24h, C2= 0.3 mg/L): 3.1 ± 0.9 µg/g
- L-Phenylalanine concentration in G. pulex (24h, C2= 0.3 mg/L): 134 ± 0.5 µg/g
- L-Serine concentration in G. pulex (24h, C2= 0.3 mg/L): 167 ± 15 µg/g
- L-Threonine concentration in G. pulex (24h, C2= 0.3 mg/L): 440 ± 11 µg/g
- L-Tryptophan concentration in G. pulex (24h, C2= 0.3 mg/L): 115 ± 8 µg/g
- L-Tyrosine concentration in G. pulex (24h, C2= 0.3 mg/L): 224 ± 1 µg/g
- L-Valine concentration in G. pulex (24h, C2= 0.3 mg/L): 250 ± 3 µg/g
- L-aspartic acid concentration in G. pulex (24h, C2= 0.3 mg/L): 33.9 ± 11 µg/g
- NADH concentration in G. pulex (24h, C2= 0.3 mg/L): 9.9 ± 0.3 µg/g
- Taurine concentration in G. pulex (24h, C2= 0.3 mg/L): 8468 ± 142 µg/g
- Thymidine concentration in G. pulex (24h, C2= 0.3 mg/L): 396 ± 12 µg/g
- Trehalose concentration in G. pulex (24h, C2= 0.3 mg/L): 378 ± 17 µg/g
- Uridine concentration in G. pulex (24h, C2= 0.3 mg/L): 574 ± 15 µg/g
